These are literature values, as cited in patent US8835508B2, “Stable aqueous solution containing sodium pyruvate, and the preparation and use thereof” (priority 2006, dated 2014).

The structures appear in SMILES notation. Like-named read-outs stand apart in the source and are kept apart here.

For this data set the following is noted: for content of dimer: 3.0 M (3,000 mM) pure NaPyr in water, room temperature.

For `CC(=O)C(=O)[O-].[Na+]` [NaPyr, sodium pyruvate], the content of dimer is 9.1% (pH 7.3, after 24 hours) and 18.4% (pH 7.3, after 48 hours). Where the note is “22° C., pH >6.0, HPLC and NMR”, the “stability of aqueous solution containing NaPyr” value is given as “unstable”.
